Like-named read-outs stand apart in the source and are kept apart here.
Legend:
[1] = pharmacokinetics and biodistribution in BT-474 tumor-bearing mice (HPLC/MS-MS); assay type: in vivo; settings: for Kp: intravenous; for Kp / half-life: 30 mg/kg
Procedure: At various time points, mice (n = 4) were sacrificed and blood and tissues (tumor, liver, lung, heart, and muscles) were dissected. […] Frozen tissues were minced, then homogenized in an equal volume of ice-cold phosphate-buffered saline (Sigma P4417; Sigma-Aldrich) using a Polytron homogenizer (TP18-10; IKA, Staufen, Germany) and keeping the material cold during the homogenization. After the addition of 50 μL of internal standard (1 μg/mL) to analytical aliquots (25 to 250 μL) of plasma or tissue homogenate, the proteins were precipitated by the addition of an equal volume of acetonitrile and processed further for chromatographic separation. […] An aliquot (5 μL) of this solution was separated on a […] Ultra Cyano reverse-phase HPLC column (column size 50 × 1 mm, particle size 3 μm, preceded by a guard column: PhenomenexTM AJO-4304 Phenylpropyl, size 4 × 2 mm (Phenomenex, Torrance, CA, USA)) with a mobile phase consisting of a mixture of 0.2% formic acid in water (solvent A) and 0.2% formic acid in acetonitrile (solvent B). The column eluent was introduced directly into the ion source of the triple-quadrupole mass spectrometer Quattro UltimaTM (Micromass Limited, now part of Waters Corporation, Milford, MA, USA) controlled by MasslynxTM 4.0 software. Positive electrospray ionization multiple-reaction monitoring was used for the MS/MS detection of the analyte. Precursors to product ion transitions of m/z 466.[…]/z 308.20 for NVP-AUY922-NX and m/z 480.[…]/z 308.15 for IS VER814 were used. […] Regression analysis and further calculations were performed using QuanLynxTM 4.0 (Waters Corporation, Milford, MA, USA) and ExcelTM 2002 (Microsoft Corporation, Redmond, WA, USA). Concentrations of unknown samples were calculated from the peak area ratio of the product ion of the analytes to the product ion of its internal standard (ordinate) against the nominal concentration (abscissa). Assay linearity was indicated by an overall regression coefficient of 0.9975.

MAXF 1384 = assay: clonogenic (soft agar colony formation) assay, primary breast tumor; assay type: cell-based, human
[2] = system: ERBB2, AKT, phospho-AKT in BT-474 cells; assay: client protein levels in BT-474 cells (Western blot); assay type: cell-based, human
Procedure: To assess total levels of AKT, phosphorylated AKT, β-tubulin, and ERBB2 in the cell extracts, 20 to 30 μg of total protein was resolved by the appropriate-percentage SDS-PAGE. The following antibodies were used for immunoblotting: anti-AKT (cat. no. 9272, rabbit polyclonal; Cell Signaling Technology, Inc.), anti-phospho-AKT (Ser473) (cat. no. 9271, rabbit polyclonal; Cell Signaling Technology, Inc.), anti-β-tubulin (cat. no. T 4026, mouse monoclonal, clone Tub2.1; Sigma-Aldrich, St. Louis, MO, USA), and anti-ERBB2 (cat. no. 28-0004, rabbit polyclonal; Zymed Laboratories Inc., now part of Invitrogen Corporation, Carlsbad, CA, USA). Bound antibodies on PVDF immunoblots were detected by Amersham ECL (Amersham, now part of GE Healthcare, Little Chalfont, Buckinghamshire, UK) or infrared fluorescence detection (LI-COR Biosciences, Lincoln, NE, USA).

MDA-MB-231 = assay: antiproliferative effect (GI50), breast cancer cell line; assay type: cell-based; settings: Homo sapiens
[3] = 48 hours after compound administration

CCNC(=O)c1noc(-c2cc(C(C)C)c(O)cc2O)c1-c1ccc(CN2CCOCC2)cc1 [NVP-AUY922]
plasma concentrations [1, 3]: below levels of quantitation
tumor concentration [1, 3]: 2.22 nmol/g
Kp ([1]; female, athymic, mouse, heart, read-out: tissue exposure over 48 hours relative to plasma): 5
half-life ([1]; female, athymic, mouse, heart, iv, heart, 30 mg/kg single i.v., read-out: T 1/2 elimination λ_z (converted)): 5.6 h
AUC(0-t) ([1]; female, athymic, mouse, iv, plasma, 30 mg/kg single i.v., read-out: AUC(0-8)): 7.3 µM·h
Cmax ([1]; female, athymic, mouse, iv, plasma, 30 mg/kg single i.v., read-out: Cmax): 14.1 ± 4.14 µM
Kp ([1]; female, athymic, mouse, liver, read-out: tissue exposure over 48 hours relative to plasma): 7
half-life ([1]; female, athymic, mouse, liver, iv, liver, 30 mg/kg single i.v., read-out: T 1/2 elimination λ_z (converted)): 7.7 h
half-life ([1]; female, athymic, mouse, liver, lung, heart, muscle, iv, liver, lung, heart, muscle, read-out: terminal elimination half-life from non-tumor tissues): 5.5 to 8 h
Kp ([1]; female, athymic, mouse, lung, read-out: tissue exposure over 48 hours relative to plasma): 10
half-life ([1]; female, athymic, mouse, lung, iv, lung, 30 mg/kg single i.v., read-out: T 1/2 elimination λ_z (converted)): 5.5 h
Kp ([1]; female, athymic, mouse, muscle, read-out: tissue exposure over 48 hours relative to plasma): 5
half-life ([1]; female, athymic, mouse, muscle, iv, muscle, 30 mg/kg single i.v., read-out: T 1/2 elimination λ_z (converted)): 8 h
half-life ([1]; female, athymic, mouse, plasma, iv, based on the last three time points, read-out: apparent terminal elimination half-life in plasma (converted)): 10 h
half-life ([1]; female, athymic, mouse, plasma, iv, plasma, 30 mg/kg single i.v., read-out: T 1/2 elimination λ_z (converted)): 10.3 h
Kp ([1]; female, athymic, mouse, tumor, read-out: tumor exposure relative to plasma): ~47
half-life ([1]; female, athymic, mouse, tumor, iv, tumor, 30 mg/kg single i.v., read-out: T 1/2 elimination λ_z (converted)): 30 h
half-life ([1]; female, athymic, mouse, tumor, iv, tumor, read-out: terminal half-life in tumor): 25 to 30 h
AUC(0-8) ([1]; heart, 30 mg/kg single i.v.): 32 nmol·h/g
Cmax ([1]; heart, 30 mg/kg single i.v.): 36.86 ± 7.42 nmol/g
dose-normalized plasma exposure ([1]; i.v. 20 mg/kg): 0.28 µmol·h/L
dose-normalized plasma exposure ([1]; i.v. 30 mg/kg): 0.24 µmol·h/L
AUC(0-8) ([1]; liver, 30 mg/kg single i.v.): 53 nmol·h/g
Cmax ([1]; liver, 30 mg/kg single i.v.): 30.94 ± 5.58 nmol/g
AUC(0-8) ([1]; lung, 30 mg/kg single i.v.): 71 nmol·h/g
Cmax ([1]; lung, 30 mg/kg single i.v.): 48.48 ± 10.11 nmol/g
AUC(0-8) ([1]; muscle, 30 mg/kg single i.v.): 35 nmol·h/g
Cmax ([1]; muscle, 30 mg/kg single i.v.): 27.45 ± 6.64 nmol/g
Cmax (highest concentration) ([1]; tumor): 16.3 nmol/g
tumor drug level at 48 hours as share of Cmax ([1]; tumor): approximately 13%
AUC(0-8) ([1]; tumor, 30 mg/kg single i.v.): 345 nmol·h/g
Cmax ([1]; tumor, 30 mg/kg single i.v.): 16.36 ± 3.84 nmol/g
IC70 (colony formation) (MAXF 1384): 477 nM
IC50 (MAXF 1384; Homo sapiens): 209 nM
concentration required for significant reduction of protein AKT levels [2]: around 1 μM
phospho-AKT levels ([2]; 50 nM): decrease in the levels of phospho-AKT
total ERBB2 levels ([2]; 50 nM): decrease in total ERBB2 levels
GI50 (MDA-MB-231): 7 ± 1.7 nM

Source: PMC2397535 (Breast Cancer Research : BCR, 2008)
